Results as given in BigSolDB 2.1.

O=C(CCc1ccc(O)cc1)c1c(O)cc(O)cc1O
solubility (mole fraction)
Settings | 288.2 K | 298.2 K | 308.2 K | 318.2 K | 328.2 K
in 1,4-dioxane | 0.0211 | 0.0249 | 0.029 | 0.0331 | 0.0384
in ethanol | 0.0345 | 0.0373 | 0.0399 | 0.0421 | 0.0447
in ethyl acetate | 0.0266 | 0.0283 | 0.0309 | 0.0343 | 0.037
in isopropanol | 0.0351 | 0.0374 | 0.039 | 0.0411 | 0.0429
in methanol | 0.0245 | 0.0259 | 0.0275 | 0.0299 | 0.0317
in n-butanol | 0.0336 | 0.035 | 0.0362 | 0.0378 | 0.0394
in n-butyl acetate | 0.0258 | 0.0281 | 0.0305 | 0.0323 | 0.0346
in n-hexanol | 0.0289 | 0.0313 | 0.0332 | 0.0347 | 0.0366
in n-pentanol | 0.0301 | 0.0324 | 0.034 | 0.0357 | 0.0378
in n-propanol | 0.03 | 0.0318 | 0.0336 | 0.0358 | 0.0382
in sec-butanol | 0.0101 | 0.014 | 0.0175 | 0.0217 | 0.0244
in water | 3.46e-06 | 5.76e-06 | 1.12e-05 | 1.7e-05 | 2.7e-05
